Test results from US20110262490A1, “POLYMER-AGENT CONJUGATES, PARTICLES, COMPOSITIONS, AND RELATED METHODS OF USE” (priority 2009, published 2011).

Key:
[1] = system: B16.F10 tumor; test: In vivo efficacy in B16.F10 mouse model of melanoma (Example 39)
Protocol: The treatments were administered on days 5, 8, and 12 (biweekly×3 injections) post tumor implantation. Health status of the animals was monitored and tumor size was measured three times a week. […] Tumors from each animal were dissected and tumor size was measured. Tumor volume was calculated using the formula: (width×width×length)/2 mm^3.

[2] = system: B16.F10 cells; test: CellTiter-Glo Luminescent Cell Viability Assay (cytotoxicity); type: cell-based, mouse; conditions: 24, 48 and 72 hours
Protocol: B16.F10 cells, grown to 85-90% confluency in 150 cm^2 flasks (passage <30), were resuspended in media (MEM-alpha, 10% HI-FBS, 1× antibiotic-antimycotic) and added to 96-well opaque-clear bottom plates at a concentration of 1500 cells/well in 200 μL/well. The cells were incubated at 37° C. with 5% CO2 for 24 hours. The following day, serial dilutions of 2× concentrated particles and 2× concentrated free drug were made in 12-well reservoirs with media to specified concentrations. The media in the plates was replaced with 100 μL of fresh media and 100 μL of the corresponding serially diluted drug. Three sets of plates were prepared with duplicate treatments. Following 24, 48 and 72 hours of incubation at 37° C. with 5% CO2, the media in the plates was replaced with 100 μL of fresh media and 100 μL of CTG solution, and then incubated for 5 minutes on a plate shaker at room temperature set to 450 rpm and allowed to rest for 15 minutes. Viable cells were measured by luminescence using a microtiter plate reader. The data was plotted as % viability vs. concentration and standardized to untreated cells.

Compound	Growth inhibition of B16.F10 cells [2]	also measured
CC(=O)O[C@H]1C(=O)[C@@]2(C)[C@H]([C@H](OC(=O)c3ccccc3)[C@]3(O)C[C@H](OC(=O)[C@H](O)[C@@H](NC(=O)c4ccccc4)c4ccccc4)C(C)=C1C3(C)C)[C@]1(OC(C)=O)CO[C@@H]1C[C@@H]2O [Free paclitaxel, paclitaxel]	–	Day-17 TGI ([1]; 6 mg/kg IV days 5, 8, 12): 57%; Day-17 TGI ([1]; 6 mg/kg IV days 5, 8, 12, listed as free paclitaxel): 57%; Day-17 TGI ([1]; 15 mg/kg IV days 5, 8, 12): 83%; Day-17 TGI ([1]; 15 mg/kg IV days 5, 8, 12, listed as free paclitaxel): 83%
Bis(Docetaxel) Glutamate-5050 PLGA-O-Acetyl [Example 9]	inhibited the growth of B16.F10 cells in a dose and time dependent manner	–
Docetaxel-5050 PLGA-O-Acetyl [Example 8]	inhibited the growth of B16.F10 cells in a dose and time dependent manner	–
Doxorubicin 5050 PLGA Amide [Example 5]	inhibited the growth of B16.F10 cells in a dose and time dependent manner	–
Paclitaxel-5050 PLGA-O-Acetyl [Example 7]	inhibited the growth of B16.F10 cells in a dose and time dependent manner	–
